Data on 13 molecules can be found in PubChem BioAssay AID1495 (Sanford-Burnham Center for Chemical Genomics, 2009).

The experiment deals with Chaperone protein DnaK (Escherichia coli) (UniProt C3TRK2). The experiment in a line: E. coli DnaK binders, calorimetric Kd – biophysical, isothermal titration calorimetry, beta-domain, full-length DnaK, orthogonal assay for DnaK modulator project, SAR follow-up (AID 1495). The note with it: purified DnaK, isothermal titration calorimetry binding. For orientation: In ITC the heat of successive injections is recorded.

The mark [1] stands for this setting: measured here: Kd to DnaK substrate-binding domain.
Setting [2] is: measured here: substrate peptide Kd, compound-saturated DnaK.

On to `Cc1ccc(CNC(=O)c2ccc([N+](=O)[O-])o2)cc1`, for which the dissociation constant (Kd) under setting [1] was 25 µM.
Turning to `O=C(NCc1ccccc1F)c1cccs1`, the Kd under setting [1] was found to be 64.1 µM.
Molecule `O=C(NCc1ccccc1Br)c1cccs1` showed a Kd under setting [1] of 14.3 µM.
Turning to `O=C(NCc1ccccc1O)c1cccs1`, the equilibrium dissociation constant (Kd) under setting [2] was found to be 1.2 µM.
`O=C(Nc1ncc2ccccc2n1)c1cccs1`: under setting [1], the dissociation constant Kd was 1.5 µM.
With `CC(Cc1ccc(F)cc1)NC(=O)c1cccs1` (stereo not given), the Kd by setting is: under setting [1], 13.7 µM; under setting [2], 0.2 µM.
For `O=C(NCc1cccc2ccsc12)c1cccs1`, under “measured here: ATP Kd, compound-saturated DnaK”, the dissociation constant Kd is 2.5 µM.
Under setting [1], `Cc1ccc(C(=O)NCc2ccc(F)cc2)o1` returned a Kd of 47.6 µM.
`O=C(c1cccs1)N1CCN(CCO)CC1` registered a Kd under setting [2] of 7.9 µM.
For `O=C(Nc1ccc2[nH]ccc2c1)c1cccs1`, the equilibrium dissociation constant (Kd) runs as follows: under setting [1], 4.9 µM; under setting [2], 2.2 µM.
As for `O=C(NCc1cccc2ccccc12)c1cccs1`, the equilibrium dissociation constant (Kd) under setting [1] came out at 1 µM.
Turning to `O=C(NCc1ccc(Cl)c(Cl)c1)c1cccs1`, the dissociation constant Kd under setting [2] came to 0.6 µM.
Molecule `Cc1ccc(C(=O)NCc2ccc(Cl)cc2)o1` displayed a Kd under setting [1] of 19.3 µM.

By Kd is commonly meant a measure of binding affinity in units of concentration. Low readings indicate tighter binding, high ones weaker binding.
